From patent publication US20040009233A1, “Shark meat extract” (priority 2000, published 2004)

System: Angiogenesis
Assay: Inhibition of angiogenesis by fatty acid samples
Assay type: cell-based
Source text: The phospholipid fatty acids usually include docosahexaenoic acid (DHA), arachidonic acid (AA), eicosapentaenoic acid (EPA), and others.

Work on CCCCC/C=C\C/C=C\C/C=C\C/C=C\CCCC(=O)O [Arachidonic, arachidonic acid] yielded an inhibition at 5 µg/mL (sample concentration 5 μg/ml) of 84%.
In the case of CCCCCCC=CCCCCCCCCC(=O)O [Heptadecenoic], the “Inhibition of Angiogenesis” value (sample concentration 20 μg/ml) is reported as 83%.
In the case of CCCCCC/C=C\CCCCCCCC(=O)O [Palmitoleic], the “Inhibition of Angiogenesis” value (sample concentration 5 μg/ml) is reported as 70%.
In the case of CC/C=C\C/C=C\C/C=C\C/C=C\C/C=C\CCCCCC(=O)O [Docosapentaenoic], the “Inhibition of Angiogenesis” value (sample concentration 4 μg/ml) is reported as 71%.
CC/C=C\C/C=C\C/C=C\C/C=C\C/C=C\C/C=C\CCC(=O)O [Docosahexaenoic (DHA), docosahexaenoic acid] gave an inhibition at 5 µg/mL (sample concentration 5 μg/ml) of 88%.
For CCCCCCCC/C=C\CCCCCCCCCCCC(=O)O [Erucic], the “Inhibition of Angiogenesis” value (sample concentration 200 μg/ml) was 30%.
In the case of CCCCCCCC/C=C\CCCCCCCCCCCCCC(=O)O [Nervonic], the “Inhibition of Angiogenesis” value (sample concentration 100 μg/ml) is reported as 0%.
Molecule CC/C=C\C/C=C\C/C=C\C/C=C\C/C=C\CCCC(=O)O [Eicosapentaenoic (EPA), eicosapentaenoic acid] has an inhibition at 3 µg/mL (sample concentration 3 μg/ml) of 100%.
CCCCCCCCCCC/C=C\CCCCC(=O)O [Petroselenic] was tested, and the “Inhibition of Angiogenesis” value (sample concentration 100 μg/ml) was 58%.
For CC/C=C\C/C=C\C/C=C\CCCCCCCC(=O)O [α-Linolenic], the “Inhibition of Angiogenesis” value (sample concentration 20 μg/ml) was 66%.
With CCCC/C=C\CCCCCCCC(=O)O [Myristoleic] the “Inhibition of Angiogenesis” value (sample concentration 10 μg/ml) was 58%.
CCCCC/C=C\C/C=C\CCCCCCCC(=O)O [Linoleic] was tested, and the “Inhibition of Angiogenesis” value (sample concentration 5 μg/ml) was 82%.
In the case of CCCCCCCC/C=C\CCCCCCCC(=O)O [Oleic, oleic acid], the inhibition at 100 µg/mL (read-out: Inhibition of Angiogenesis) is reported as 0%.
